Patent US9359367B2, “Tetrahydroquinazolinone derivatives as PARP inhibitors” (Lupin Limited, priority 2012, dated 2016)

target: T1, PARP1 (Homo sapiens, UniProt P09874); test: PARP1 Biochemical Assay (BPS Bioscience kit, chemiluminescence); conditions: histone-coated plate, biotinilated NAD+, 25° C. for 60 min, luminescence, read-out: PARP 1 inhibition IC50
T1 construct: purchased BPS Bioscience
Description: The assay was performed using BPS Bioscience kit. The 96-well strip plate was coated with 50 μl of histone mixture and incubated at 4° C. overnight. Next day the wells were blocked by adding 100 μl of blocking buffer. The plate was washed and 25 μl of appropriate concentration of PARP1 (25-75 ng/well) was added in all the Test and Positive control wells. In Negative control wells enzyme was replaced with 25 μl of water. To it 5 μl each of 10×PARP assay buffer and activated DNA was added in all the wells (Test, Positive and Negative control wells). 10× concentration of test compounds were prepared and 5 μl test compounds were added respective wells. Reaction volume was made up to 45 μl by adding water to all the wells. Finally, 5 μl of 10×PARP assay mixture containing biotinilated NAD^+ was added in each well and the plate was incubated at ambient temperature (25° C.) for 60 min. After washing the plate 50 μl of Streptavidin-HRP was added in each well and incubated the plate at RT for 30 min. The plate was washed and the luminescence was read in PHERAStar plate reader after adding 100 μl of chemiluminescent substrate.
PARP inhibition was calculated using the following formula: % PARP inhibition=100−[(RLU test compound treated sample−RLU negative control)/(RLU Positive control−RLU negative control)×100]
IC50 values were calculated by plotting % inhibition against the respective concentrations of test compounds using GraphPad Prism 5.

T1 sequence (P09874 whole entry): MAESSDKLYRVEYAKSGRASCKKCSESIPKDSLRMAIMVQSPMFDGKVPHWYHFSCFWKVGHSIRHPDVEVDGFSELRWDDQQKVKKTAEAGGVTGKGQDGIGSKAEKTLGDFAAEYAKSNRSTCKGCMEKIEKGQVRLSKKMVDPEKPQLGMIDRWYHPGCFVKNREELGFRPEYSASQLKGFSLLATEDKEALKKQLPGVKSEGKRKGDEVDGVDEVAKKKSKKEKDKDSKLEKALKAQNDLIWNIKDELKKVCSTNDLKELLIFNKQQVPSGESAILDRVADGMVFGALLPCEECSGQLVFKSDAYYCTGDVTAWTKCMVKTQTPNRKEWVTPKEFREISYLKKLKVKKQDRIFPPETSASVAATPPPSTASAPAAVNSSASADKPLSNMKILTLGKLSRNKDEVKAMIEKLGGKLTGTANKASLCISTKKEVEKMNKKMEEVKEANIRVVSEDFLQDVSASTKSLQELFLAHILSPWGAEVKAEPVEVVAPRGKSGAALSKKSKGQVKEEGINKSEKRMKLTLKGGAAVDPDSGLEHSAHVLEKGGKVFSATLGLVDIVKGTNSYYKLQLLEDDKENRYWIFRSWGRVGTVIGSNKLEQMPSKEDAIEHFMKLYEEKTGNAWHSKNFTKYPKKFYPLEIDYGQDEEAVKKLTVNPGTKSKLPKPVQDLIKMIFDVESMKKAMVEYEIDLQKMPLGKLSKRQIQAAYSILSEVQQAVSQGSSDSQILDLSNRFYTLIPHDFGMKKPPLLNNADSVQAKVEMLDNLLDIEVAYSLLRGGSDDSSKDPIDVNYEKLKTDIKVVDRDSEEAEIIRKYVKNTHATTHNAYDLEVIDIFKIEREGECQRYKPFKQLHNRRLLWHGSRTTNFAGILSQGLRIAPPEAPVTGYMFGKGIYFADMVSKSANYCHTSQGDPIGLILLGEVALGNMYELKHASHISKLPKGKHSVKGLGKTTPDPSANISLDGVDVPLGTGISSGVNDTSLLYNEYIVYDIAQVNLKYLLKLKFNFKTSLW

Row | Structure (SMILES) | IC50 [nM]
1 | O=c1[nH]c(C2=C[C@@H](N3CCN(c4ccc(F)cc4)CC3)CC2)nc2c1CCCC21CC1 [Compound 49, (S)-2′-(3-(4-(4-fluorophenyl)piperazin-1-yl)cyclopent-1-en-1-yl)-6′,7′-dihydro-3′H-spiro[cyclopropane-1,8′-quinazolin]-4′(5′H)-one] | 1 to 500
2 | O=c1[nH]c(CCCN2CCN(c3ccncc3)CC2)nc2c1CC1(CC2)CC1 [Compound 29, 2′-(3-(4-(pyridin-4-yl)piperazin-1-yl)propyl)-7′,8′-dihydro-3′H-spiro[cyclopropane-1,6′-quinazolin]-4′(5′H)-one] | 1 to 500
3 | O=c1[nH]c(C2=C[C@H](N3CCN(c4cccc(F)c4Cl)CC3)CC2)nc2c1CC1(CC2)CC1 [Compound 93, (R)-2′-(3-(4-(2-chloro-3-fluorophenyl)piperazin-1-yl)cyclopent-1-en-1-yl)-7′,8′-dihydro-3′H-spiro[cyclopropane-1,6′-quinazolin]-4′(5′H)-one] | 1 to 500
4 | O=c1[nH]c(C2=C[C@H](N3CCN(c4ccc(Cl)cc4)CC3)CC2)nc2c1CCCC21CC1 [Compound 41, (R)-2′-(3-(4-(4-chlorophenyl)piperazin-1-yl)cyclopent-1-en-1-yl)-6′,7′-dihydro-3′H-spiro[cyclopropane-1,8′-quinazolin]-4′(5′H)-one] | 5000 to 500000
5 | O=c1[nH]c(C2=CC(N3C4CCC3CN(c3ccc(Cl)cc3)C4)CC2)nc2c1CC1(CC2)CC1 (stereo not shown) [Compound 159, 2′-(3-(3-(4-chlorophenyl)-3,8-diazabicyclo[3.2.1]octan-8-yl)cyclopent-1-en-1-yl)-7′,8′-dihydro-3′H-spiro[cyclopropane-1,6′-quinazolin]-4′(5′H)-one] | 5000 to 500000
6 | O=c1[nH]c(C2=C[C@H](N3CCN(c4ccc(F)cc4Cl)CC3)CC2)nc2c1CC1(CC2)CC1 [Compound 79, (R)-2′-(3-(4-(2-chloro-4-fluorophenyl)piperazin-1-yl)cyclopent-1-en-1-yl)-7′,8′-dihydro-3′H-spiro[cyclopropane-1,6′-quinazolin]-4′(5′H)-one] | 1 to 500
7 | CNC(=O)c1cccnc1N1CCN([C@H]2C=C(c3nc4c(c(=O)[nH]3)CC3(CC4)CC3)CC2)CC1 [Compound 131, (R)—N-methyl-2-(4-(3-(4′-oxo-4′,5′,7′,8′-tetrahydro-3′H-spiro[cyclopropane-1,6′-quinazolin]-2′-yl)cyclopent-2-en-1-yl)piperazin-1-yl)nicotinamide] | 501 to 5000
8 | O=c1[nH]c(CCCN2CCC(c3ccccc3)CC2)nc2c1CC1(CC2)CC1 [Compound 19, 2′-(3-(4-phenylpiperidin-1-yl)propyl)-7′,8′-dihydro-3′H-spiro[cyclopropane-1,6′-quinazolin]-4′(5′H)-one] | 1 to 500
9 | O=c1[nH]c(CCCN2CC3CCC(C2)N3c2ccc(F)cc2)nc2c1CC1(CC2)CC1 [Compound 8, 2′-(3-(8-(4-fluorophenyl)-3,8-diazabicyclo[3.2.1]octan-3-yl)propyl)-7′,8′-dihydro-3′H-spiro[cyclopropane-1,6′-quinazolin]-4′(5′H)-one] | 5000 to 500000
10 | O=c1[nH]c(CCCN2CCN(c3ccccn3)CC2)nc2c1CC1(CC2)CC1 [Compound 20, 2′-(3-(4-(pyridin-2-yl)piperazin-1-yl)propyl)-7′,8′-dihydro-3′H-spiro[cyclopropane-1,6′-quinazolin]-4′(5′H)-one] | 5000 to 500000
11 | O=C(NC1CC1)c1ccc(N2CCN(C3C=C(c4nc5c(c(=O)[nH]4)CC4(CC5)CC4)CC3)CC2)cc1 (stereo not shown) [Compound 44, N-cyclopropyl-4-(4-(3-(4′-oxo-4′,5′,7′,8′-tetrahydro-3′H-spiro[cyclopropane-1,6′-quinazolin]-2′-yl)cyclopent-2-en-1-yl)piperazin-1-yl)benzamide] | 1 to 500
12 | O=c1[nH]c(C2=C[C@H](N3CCN(c4ccc(F)cc4)CC3)CC2)nc2c1CC1(CC2)CC1 [Compound 42, (R)-2′-(3-(4-(4-fluorophenyl)piperazin-1-yl)cyclopent-1-en-1-yl)-7′,8′-dihydro-3′H-spiro[cyclopropane-1,6′-quinazolin]-4′(5′H)-one] | 1 to 500
13 | O=c1[nH]c(CCCN2CCN(c3ccc(Cl)cc3)CC2)nc2c1CC1(CC2)CC1 [Compound 6, 2′-(3-(4-(4-chlorophenyl)piperazin-1-yl)propyl)-7′,8′-dihydro-3′H-spiro[cyclopropane-1,6′-quinazolin]-4′(5′H)-one] | 1 to 500
14 | O=c1[nH]c(C2=C[C@H](N3CCN(c4ccc(Cl)cc4)CC3)CC2)nc2c1CC1(CC2)CC1 [Compound 37, (R)-2′-(3-(4-(4-chlorophenyl)piperazin-1-yl)cyclopent-1-en-1-yl)-7′,8′-dihydro-3′H-spiro[cyclopropane-1,6′-quinazolin]-4′(5′H)-one] | 1 to 500
15 | O=c1[nH]c([C@H]2CC[C@@H](N3CCN(c4cccc(F)c4)CC3)C2)nc2c1CC1(CC2)CC1 [Compound 155, 2′-((1S,3R)-3-(4-(3-fluorophenyl)piperazin-1-yl)cyclopentyl)-7′,8′-dihydro-3′H-spiro[cyclopropane-1,6′-quinazolin]-4′(5′H)-one] | 501 to 5000
16 | O=c1[nH]c(CCCN2CCN(c3ccccc3)CC2)nc2c1CC1CC1C2 (stereo not shown) [Compound 25, 2-(3-(4-phenylpiperazin-1-yl)propyl)-5a,6,6a,7-tetrahydro-3H-cyclopropa[g]quinazolin-4(5H)-one] | 501 to 5000
17 | O=c1[nH]c(C2=C[C@H](N3CCN(c4cccc(F)c4F)CC3)CC2)nc2c1CC1(CC2)CC1 [Compound 100, (R)-2′-(3-(4-(2,3-difluorophenyl)piperazin-1-yl)cyclopent-1-en-1-yl)-7′,8′-dihydro-3′H-spiro[cyclopropane-1,6′-quinazolin]-4′(5′H)-one] | 1 to 500
18 | O=c1[nH]c(C2=C[C@H](N3CCN(c4ccc(F)c(Cl)c4)CC3)CC2)nc2c1CC1(CC2)CC1 [Compound 64, (R)-2′-(3-(4-(3-chloro-4-fluorophenyl)piperazin-1-yl)cyclopent-1-en-1-yl)-7′,8′-dihydro-3′H-spiro[cyclopropane-1,6′-quinazolin]-4′(5′H)-one] | 501 to 5000
19 | O=c1[nH]c(CCCN2CCN(c3ccc(Cl)cc3)CC2)nc2c1CCCC21CC1 [Compound 2, 2′-(3-(4-(4-chlorophenyl)piperazin-1-yl)propyl)-6′,7′-dihydro-3′H-spiro[cyclopropane-1,8′-quinazolin]-4′(5′H)-one] | 1 to 500
20 | O=c1[nH]c(C2=C[C@@H](N3CC=C(c4ccc(F)cc4)CC3)CC2)nc2c1CC1(CC2)CC1 [Compound 51, (S)-2′-(3-(4-(4-fluorophenyl)-5,6-dihydropyridin-1(2H)-yl)cyclopent-1-en-1-yl)-7′,8′-dihydro-3′H-spiro[cyclopropane-1,6′-quinazolin]-4′(5′H)-one] | 1 to 500
21 | O=c1[nH]c(C2=C[C@H](N3CCN(c4nccs4)CC3)CC2)nc2c1CC1(CC2)CC1 [Compound 101, (R)-2′-(3-(4-(thiazol-2-yl)piperazin-1-yl)cyclopent-1-en-1-yl)-7′,8′-dihydro-3′H-spiro[cyclopropane-1,6′-quinazolin]-4′(5′H)-one] | 1 to 500
22 | O=c1[nH]c(C2=C[C@H](N3CCN(c4ncc(Cl)cc4F)CC3)CC2)nc2c1CC1(CC2)CC1 [Compound 146, (R)-2′-(3-(4-(5-chloro-3-fluoropyridin-2-yl)piperazin-1-yl)cyclopent-1-en-1-yl)-7′,8′-dihydro-3′H-spiro[cyclopropane-1,6′-quinazolin]-4′(5′H)-one] | 1 to 500
